# Measured values reported in US10987357B2, “Aerosolized fluoroquinolones and uses thereof” (Horizon Orphan, LLC, priority 2005, dated 2021).
# Tested on: Streptococcus pneumonia (Sp)
# Assay: not given
# Conditions: Table 7; cited from earlier work
row,SMILES,Sp MIC90 [µg/mL]
1,CCN1CCN(c2cc3c(cc2F)c(=O)c(C(=O)O)cn3C2CC2)CC1 [Enrofloxacin],1
2,C[C@H]1NCc2cc(-c3ccc4c(=O)c(C(=O)O)cn(C5CC5)c4c3OC(F)F)ccc21 [Garenoxacin],0.06
3,CCn1cc(C(=O)O)c(=O)c2cc(F)c(N3CCNCC3)nc21 [Enoxacin],16
4,Cc1oc(=O)oc1CN1CCN(c2cc3c(cc2F)c(=O)c(C(=O)O)c2n3C(C)S2)CC1 (stereo not shown) [Prulifloxacin],1
5,C[C@H]1COc2c(C3(N)CC3)c(F)cc3c(=O)c(C(=O)O)cn1c23 [Pazufloxacin],4
6,CN1CCN(c2cc3c(cc2F)c(=O)c(C(=O)O)cn3-c2ccc(F)cc2)CC1 [Difloxacin],2
7,CCn1cc(C(=O)O)c(=O)c2cc(F)c(N3CCNCC3)cc21 [Norfloxacin],16
8,N[C@@H]1CN(c2c(F)cc3c(=O)c(C(=O)O)cn([C@@H]4C[C@@H]4F)c3c2Cl)CC12CC2 [Sitafloxacin],0.06
9,CN1CCN(c2c(F)cc3c(=O)c(C(=O)O)cn4c3c2SCC4)CC1 [Rufloxacin],32
10,Cc1c(F)c(N2CCNC(C)C2)cc2c1c(=O)c(C(=O)O)cn2C1CC1 (stereo not shown) [Grepafloxacin],0.5
11,CNC1CCCN(c2c(F)cc3c(=O)c(C(=O)O)cn(C4CC4)c3c2OC)C1 (stereo not shown) [Balofloxacin],0.5
12,CN1CCN(c2c(F)cc3c(=O)c(C(=O)O)cn(CCF)c3c2F)CC1 [Fleroxacin],8
13,Cc1c(N2C[C@@H](N)C3(CC3)C2)c(F)c(N)c2c(=O)c(C(=O)O)cn(C3CC3)c12 [Olamufloxacin],0.06

# Tested on: not listed separately
# Assay: Rat pharmacokinetic model (IV vs microspray aerosol, intratracheal)
# Format: in vivo, rats
# Conditions: IT, 10 mg/kg
# Description: […] Blood samples are taken at various times over 3 hours to determine the plasma pharmacokinetic parameters. […] The plasma and tissue concentrations are determined by an HPLC method and the data are then fit using WinNonlin.
row,SMILES,"F, % from Lung vs. IV [%]"
1,NC[C@H]1O[C@H](O[C@H]2[C@H](O)[C@@H](O[C@H]3O[C@H](CO)[C@@H](O)[C@H](N)[C@H]3O)[C@H](N)C[C@@H]2N)[C@H](N)C[C@@H]1O [Tobramycin],81
2,CCn1cc(C(=O)O)c(=O)c2cc(F)c(N3CCNCC3)cc21 [Norfloxacin],100

# Same assay, conditions: rat, epithelial lining fluid (ELF), inhaled or intranasal; IT, 10 mg/kg
row,SMILES,AUC [µg·h/mL]
1,NC[C@H]1O[C@H](O[C@H]2[C@H](O)[C@@H](O[C@H]3O[C@H](CO)[C@@H](O)[C@H](N)[C@H]3O)[C@H](N)C[C@@H]2N)[C@H](N)C[C@@H]1O [Tobramycin],5150
2,CCn1cc(C(=O)O)c(=O)c2cc(F)c(N3CCNCC3)cc21 [Norfloxacin],41.7

# Same assay, conditions: rat, epithelial lining fluid (ELF), iv, 10 mg/kg
row,SMILES,AUC [µg·h/mL]
1,NC[C@H]1O[C@H](O[C@H]2[C@H](O)[C@@H](O[C@H]3O[C@H](CO)[C@@H](O)[C@H](N)[C@H]3O)[C@H](N)C[C@@H]2N)[C@H](N)C[C@@H]1O [Tobramycin],27.6
2,CCn1cc(C(=O)O)c(=O)c2cc(F)c(N3CCNCC3)cc21 [Norfloxacin],3.27

# Same assay, conditions: rat, serum, inhaled or intranasal; IT, 10 mg/kg
row,SMILES,AUC(0-inf) [µg·h/mL]
1,NC[C@H]1O[C@H](O[C@H]2[C@H](O)[C@@H](O[C@H]3O[C@H](CO)[C@@H](O)[C@H](N)[C@H]3O)[C@H](N)C[C@@H]2N)[C@H](N)C[C@@H]1O [Tobramycin],13.8

# Same assay, conditions: rat, serum, inhaled or intranasal; IT, 10 mg/kg; read-out: Serum t1/2 (converted)
row,SMILES,half-life [min]
1,NC[C@H]1O[C@H](O[C@H]2[C@H](O)[C@@H](O[C@H]3O[C@H](CO)[C@@H](O)[C@H](N)[C@H]3O)[C@H](N)C[C@@H]2N)[C@H](N)C[C@@H]1O [Tobramycin],60

# Same assay, conditions: rat, serum, iv, 10 mg/kg
row,SMILES,AUC(0-inf) [µg·h/mL]
1,NC[C@H]1O[C@H](O[C@H]2[C@H](O)[C@@H](O[C@H]3O[C@H](CO)[C@@H](O)[C@H](N)[C@H]3O)[C@H](N)C[C@@H]2N)[C@H](N)C[C@@H]1O [Tobramycin],15.7

# Same assay, conditions: rat, serum, iv, 10 mg/kg; read-out: Serum t1/2 (converted)
row,SMILES,half-life [min]
1,NC[C@H]1O[C@H](O[C@H]2[C@H](O)[C@@H](O[C@H]3O[C@H](CO)[C@@H](O)[C@H](N)[C@H]3O)[C@H](N)C[C@@H]2N)[C@H](N)C[C@@H]1O [Tobramycin],30

# Tested on: P. aeruginosa strain PAM 1723
# Assay: Mouse lung infection efficacy model
# Conditions: Pseudomonas aeruginosa, PAM1723, in Mus musculus, 1 h, read-out: DeltaLOG CPU 1 hr, route IT, dose 5 mg/kg, 1 hr post-drug administration
# Description: The inoculum is adjusted to ca. 5×10^6 CFU/ml by correlation of absorbance at 600 nm with predetermined plate counts. […] On day 5, mice are infected by an intratracheal instillation of 0.05 ml of inoculum while under isoflurane anesthesia (5% isoflurane in oxygen running at 4 L/min). […] Mice are sacrificed 1 and 4 hours after treatment, their lungs removed, homogenized and plated to determine colony counts.
row,SMILES,log reduction at 5 mg/kg
1,NC[C@H]1O[C@H](O[C@H]2[C@H](O)[C@@H](O[C@H]3O[C@H](CO)[C@@H](O)[C@H](N)[C@H]3O)[C@H](N)C[C@@H]2N)[C@H](N)C[C@@H]1O [Tobramycin],1.59

# Same assay, conditions: Pseudomonas aeruginosa, PAM1723, in Mus musculus, 4 h, read-out: DeltaLOG CPU 4 hr, route IT, dose 5 mg/kg, 4 hr post-drug administration
row,SMILES,log reduction at 5 mg/kg
1,NC[C@H]1O[C@H](O[C@H]2[C@H](O)[C@@H](O[C@H]3O[C@H](CO)[C@@H](O)[C@H](N)[C@H]3O)[C@H](N)C[C@@H]2N)[C@H](N)C[C@@H]1O [Tobramycin],0.94

# Same assay, conditions: Pseudomonas aeruginosa, PAM1723, in Mus musculus, ip, 1 h, read-out: DeltaLOG CPU 1 hr, route IP, dose 5 mg/kg, 1 hr post-drug administration
row,SMILES,log reduction at 5 mg/kg
1,NC[C@H]1O[C@H](O[C@H]2[C@H](O)[C@@H](O[C@H]3O[C@H](CO)[C@@H](O)[C@H](N)[C@H]3O)[C@H](N)C[C@@H]2N)[C@H](N)C[C@@H]1O [Tobramycin],0.7

# Same assay, conditions: Pseudomonas aeruginosa, PAM1723, in Mus musculus, ip, 4 h, read-out: DeltaLOG CPU 4 hr, route IP, dose 5 mg/kg, 4 hr post-drug administration
row,SMILES,log reduction at 5 mg/kg
1,NC[C@H]1O[C@H](O[C@H]2[C@H](O)[C@@H](O[C@H]3O[C@H](CO)[C@@H](O)[C@H](N)[C@H]3O)[C@H](N)C[C@@H]2N)[C@H](N)C[C@@H]1O [Tobramycin],-0.29

# Tested on: Sa
# Assay: not given
# Conditions: Table 7; cited from earlier work
row,SMILES,Sa MIC90 [µg/mL]
1,O=C(O)c1cn(-c2ccc(F)cc2)c2cc(N3CCNCC3)c(F)cc2c1=O [Sarafloxacin],0.25
2,CCN1CCN(c2cc3c(cc2F)c(=O)c(C(=O)O)cn3C2CC2)CC1 [Enrofloxacin],0.125
3,C[C@H]1NCc2cc(-c3ccc4c(=O)c(C(=O)O)cn(C5CC5)c4c3OC(F)F)ccc21 [Garenoxacin],0.06
4,CN1C[C@@H]2C[C@H]1CN2c1cc2c(cc1F)c(=O)c(C(=O)O)cn2C1CC1 [Danofloxacin],0.125
5,CCn1cc(C(=O)O)c(=O)c2cc(F)c(N3CCNCC3)nc21 [Enoxacin],1
6,Cc1oc(=O)oc1CN1CCN(c2cc3c(cc2F)c(=O)c(C(=O)O)c2n3C(C)S2)CC1 (stereo not shown) [Prulifloxacin],0.25
7,C[C@H]1COc2c(C3(N)CC3)c(F)cc3c(=O)c(C(=O)O)cn1c23 [Pazufloxacin],0.5
8,CN1CCN(c2cc3c(cc2F)c(=O)c(C(=O)O)cn3-c2ccc(F)cc2)CC1 [Difloxacin],0.5
9,CCn1cc(C(=O)O)c(=O)c2cc(F)c(N3CCNCC3)cc21 [Norfloxacin],1
10,N[C@@H]1CN(c2c(F)cc3c(=O)c(C(=O)O)cn([C@@H]4C[C@@H]4F)c3c2Cl)CC12CC2 [Sitafloxacin],0.125
11,CN1CCN(c2c(F)cc3c(=O)c(C(=O)O)cn4c3c2SCC4)CC1 [Rufloxacin],2
12,Cc1c(F)c(N2CCNC(C)C2)cc2c1c(=O)c(C(=O)O)cn2C1CC1 (stereo not shown) [Grepafloxacin],0.125
13,CNC1CCCN(c2c(F)cc3c(=O)c(C(=O)O)cn(C4CC4)c3c2OC)C1 (stereo not shown) [Balofloxacin],0.25
14,CN1CCN(c2c(F)cc3c(=O)c(C(=O)O)cn(CCF)c3c2F)CC1 [Fleroxacin],1
15,Cc1c(N2C[C@@H](N)C3(CC3)C2)c(F)c(N)c2c(=O)c(C(=O)O)cn(C3CC3)c12 [Olamufloxacin],1

# Tested on: methicillin resistant Staphylococcus aureus (MRSA)
# Assay: not given
# Conditions: Table 7; cited from earlier work
row,SMILES,MRSA MIC90 [µg/mL]
1,O=C(O)c1cn(-c2ccc(F)cc2)c2cc(N3CCNCC3)c(F)cc2c1=O [Sarafloxacin],>16
2,CCN1CCN(c2cc3c(cc2F)c(=O)c(C(=O)O)cn3C2CC2)CC1 [Enrofloxacin],8
3,C[C@H]1NCc2cc(-c3ccc4c(=O)c(C(=O)O)cn(C5CC5)c4c3OC(F)F)ccc21 [Garenoxacin],8
4,CCn1cc(C(=O)O)c(=O)c2cc(F)c(N3CCNCC3)nc21 [Enoxacin],>4
5,Cc1oc(=O)oc1CN1CCN(c2cc3c(cc2F)c(=O)c(C(=O)O)c2n3C(C)S2)CC1 (stereo not shown) [Prulifloxacin],32
6,C[C@H]1COc2c(C3(N)CC3)c(F)cc3c(=O)c(C(=O)O)cn1c23 [Pazufloxacin],>16
7,CCn1cc(C(=O)O)c(=O)c2cc(F)c(N3CCNCC3)cc21 [Norfloxacin],>4
8,N[C@@H]1CN(c2c(F)cc3c(=O)c(C(=O)O)cn([C@@H]4C[C@@H]4F)c3c2Cl)CC12CC2 [Sitafloxacin],4
9,CN1CCN(c2c(F)cc3c(=O)c(C(=O)O)cn4c3c2SCC4)CC1 [Rufloxacin],64
10,Cc1c(F)c(N2CCNC(C)C2)cc2c1c(=O)c(C(=O)O)cn2C1CC1 (stereo not shown) [Grepafloxacin],32
11,CNC1CCCN(c2c(F)cc3c(=O)c(C(=O)O)cn(C4CC4)c3c2OC)C1 (stereo not shown) [Balofloxacin],8
12,CN1CCN(c2c(F)cc3c(=O)c(C(=O)O)cn(CCF)c3c2F)CC1 [Fleroxacin],>4
13,Cc1c(N2C[C@@H](N)C3(CC3)C2)c(F)c(N)c2c(=O)c(C(=O)O)cn(C3CC3)c12 [Olamufloxacin],2

# Tested on: Pseudomonas aeruginosa (Pa)
# Assay: not given
# Conditions: Table 7; cited from earlier work
row,SMILES,Pa MIC90 [µg/mL]
1,O=C(O)c1cn(-c2ccc(F)cc2)c2cc(N3CCNCC3)c(F)cc2c1=O [Sarafloxacin],>16
2,CCN1CCN(c2cc3c(cc2F)c(=O)c(C(=O)O)cn3C2CC2)CC1 [Enrofloxacin],>16
3,C[C@H]1NCc2cc(-c3ccc4c(=O)c(C(=O)O)cn(C5CC5)c4c3OC(F)F)ccc21 [Garenoxacin],>32
4,CN1C[C@@H]2C[C@H]1CN2c1cc2c(cc1F)c(=O)c(C(=O)O)cn2C1CC1 [Danofloxacin],>16
5,CCn1cc(C(=O)O)c(=O)c2cc(F)c(N3CCNCC3)nc21 [Enoxacin],>32
6,Cc1oc(=O)oc1CN1CCN(c2cc3c(cc2F)c(=O)c(C(=O)O)c2n3C(C)S2)CC1 (stereo not shown) [Prulifloxacin],16
7,C[C@H]1COc2c(C3(N)CC3)c(F)cc3c(=O)c(C(=O)O)cn1c23 [Pazufloxacin],>32
8,CN1CCN(c2cc3c(cc2F)c(=O)c(C(=O)O)cn3-c2ccc(F)cc2)CC1 [Difloxacin],32
9,CCn1cc(C(=O)O)c(=O)c2cc(F)c(N3CCNCC3)cc21 [Norfloxacin],16
10,N[C@@H]1CN(c2c(F)cc3c(=O)c(C(=O)O)cn([C@@H]4C[C@@H]4F)c3c2Cl)CC12CC2 [Sitafloxacin],8
11,CN1CCN(c2c(F)cc3c(=O)c(C(=O)O)cn4c3c2SCC4)CC1 [Rufloxacin],32
12,Cc1c(F)c(N2CCNC(C)C2)cc2c1c(=O)c(C(=O)O)cn2C1CC1 (stereo not shown) [Grepafloxacin],>32
13,CNC1CCCN(c2c(F)cc3c(=O)c(C(=O)O)cn(C4CC4)c3c2OC)C1 (stereo not shown) [Balofloxacin],32
14,CN1CCN(c2c(F)cc3c(=O)c(C(=O)O)cn(CCF)c3c2F)CC1 [Fleroxacin],32
15,Cc1c(N2C[C@@H](N)C3(CC3)C2)c(F)c(N)c2c(=O)c(C(=O)O)cn(C3CC3)c12 [Olamufloxacin],16
